Test system: double transgenic rats over-expressing both, the gene for human renin and the gene for human angiotensinogen
Experiment: Urinary albumin excretion (albuminuria) in double transgenic rat model of malignant hypertension with renal complications
Type: in vivo
Text: An animal model for spontaneously malignant hypertension with renal complications is represented by double transgenic rats over-expressing both, the gene for human renin and the gene for human angiotensinogen. This double transgenic rat strain is produced by crossbreeding two transgenic strains, one for human angiotensinogen with the endogenous promoter and one for human renin with the endogenous promoter. Neither single transgenic strain is hypertensive. […] The fact that human renin can be studied in the rat is a unique feature of this model and allows the extrapolation to clinical high renin hypertension. […] Each agent can be tested over a wide range of dosages to determine the optimal drug level for each agent in combination to elicit the maximal response. Each study group is best performed in which the effects of the combination treatment group are determined at the same time as the individual components are evaluated. Although drug effects may be observed upon short term treatment, it is preferable to observe responses in a chronic setting as shown below in which experiments were done over a three to seven week observation period. The long-term duration study is of sufficient duration to allow for the full development of compensatory responses to occur and therefore, the observed effect will most likely depict the actual responses of the test system representing sustained or persistent effects. The combination therapy can be compared to that of the respective monotherapies by determining the maximum change in 24 hour urinary protein content at a given day. All values are represented as the group mean±standard error of the mean (SEM). Statistical significance is obtained when p<0.05. The albuminuria values for each of the treatment groups can be compared statistically using a one-way ANOVA followed by the appropriate post-hoc analysis, for example by performing a Bonferoni test. Four week old double transgenic rats were treated daily by oral gavage with SPP100/aliskiren at a dose of 10 mg/kg, SPP301/avosentan at doses of 10 and 30 mg/kg and combinations of SPP100/aliskiren with SPP301/avosentan at the same doses. After three, five and seven weeks of drug treatment, 24 hour urine samples are collected using metabolic cages. The urinary albumin content is measured by ELISA using a commercial kit ([…] GmbH, Luckenwalde, Germany).

| Structure (SMILES) | Albuminuria: mean ± SEM (SPP100 10 mg/kg daily oral gavage, Baseline, 24 h urine, ELISA) [ug/24 h] | Albuminuria: mean ± SEM (SPP100 10 mg/kg daily oral gavage, treatment week 3) [ug/24 h] | Albuminuria: mean ± SEM (SPP100 10 mg/kg daily oral gavage, treatment week 5) [ug/24 h] | Albuminuria: mean ± SEM (SPP100 10 mg/kg daily oral gavage, treatment week 7) [ug/24 h] | mean urinary albumin excretions (SPP100/aliskiren 10 mg/kg daily oral, after seven weeks of treatment) | Albuminuria: mean ± SEM (SPP301 10 mg/kg daily oral gavage, Baseline) [ug/24 h] | Albuminuria: mean ± SEM (SPP301 10 mg/kg daily oral gavage, treatment week 3) [ug/24 h] | Albuminuria: mean ± SEM (SPP301 10 mg/kg daily oral gavage, treatment week 5) [ug/24 h] | Albuminuria: mean ± SEM (SPP301 10 mg/kg daily oral gavage, treatment week 7) [ug/24 h] | Albuminuria: mean ± SEM (SPP301 30 mg/kg daily oral gavage, Baseline) [ug/24 h] | Albuminuria: mean ± SEM (SPP301 30 mg/kg daily oral gavage, treatment week 3) [ug/24 h] | Albuminuria: mean ± SEM (SPP301 30 mg/kg daily oral gavage, treatment week 5) [ug/24 h] | Albuminuria: mean ± SEM (SPP301 30 mg/kg daily oral gavage, treatment week 7) [ug/24 h] | urinary albumin contents (SPP301/avosentan at 10 or 30 mg/kg daily dosing) [mg] |
| --- | --- | --- | --- | --- | --- | --- | --- | --- | --- | --- | --- | --- | --- | --- |
| COCCCOc1cc(C[C@@H](C[C@H](N)[C@@H](O)C[C@H](C(=O)NCC(C)(C)C(N)=O)C(C)C)C(C)C)ccc1OC [SPP100, aliskiren] | 469 ± 64 | 3046 ± 734 | 12356 ± 3194 | 22268 ± 5067 | up to 22.3 mg | – | – | – | – | – | – | – | – | – |
| COc1ccccc1Oc1c(NS(=O)(=O)c2ccc(C)cn2)nc(-c2ccncc2)nc1OC [SPP301, 5-methyl-pyridine-2-sulfonic acid [6-methoxy-5-(2-methoxy-phenoxy)-2-pyridin-4-yl-pyrimidin-4-yl]-amide] | – | – | – | – | – | 422 ± 128 | 14213 ± 4658 | 38936 ± 7988 | 38980 ± 9642 | 413 ± 151 | 11824 ± 2343 | 43160 ± 10250 | 37416 ± 16057 | ≤ 39 |

— patent US20100173919A1, “PHARMACEUTICAL COMPOSITION USING ALISKIREN AND AVOSENTAN” (priority 2006, published 2010)
